Experiment [1] concerns the target T1, WWP1 (Mus musculus, UniProt Q8BZZ3).
T1 construct: The LKO.1 lentiviral vectors expressing RNAi against murine WWP1; endogenous in cells; host or cells: C3H10T1/2 (murine mesenchymal stem cell line)
Kind of experiment: OSE2 (osteocalcin) luciferase reporter assay, primary screen. The experiment is classed as cell-based, murine. The protocol:
A cell-based reporter assay was modified for use as a primary screen. It is based on the inhibition by WWPI of Runx2 activation of a target promoter sequence from the osteocalcin gene. The murine mesenchymal stem cell line, C3H10T1/2 was maintained in DMEM+10% FBS. Cells were seeded overnight in a 12-wlel dish at 8×10^4 cells/well and transfected with the multimerized osteocalcin (OSE) luciferase (6×OSE2) reporter gene plasmid and combinations of expression constructs, as indicated, by Effectene (Qiagen). Total amounts of transfected DNA were kept constant by supplementing with control empty expression vector plasmids. All cells were cotransfected with pRL-TK (Promega) to control for transfection efficience. Forty-eight hours after transfection, cells were harvested and lysed in 1×Passive Lysis Buffer (Promega) and luciferase assays performed using the Dual-Luciferase Reporter Assay System (Promega).
Runx2 transactivation function in luciferase reporter assays was enhanced in WWPli cells. The LKO.1 lentiviral vectors expressing RNAi against murine WWP1, and GFP were cotransfected along with D8.9 and VSV-G plasmids into […] cells utilizing Effectene (Qiagen).
For orientation: A reporter such as luciferase makes a cellular process visible.

The subject of experiment [2] is primary human mesenchymal stem cells (MSCs). Kind of experiment: Human osteoblast differentiation in vitro (mineralization). In kind it is cell-based. The settings on record: compound included in the MSC osteoblast differentiation culture system. The protocol:
This cell-based assay uses a 96-well format in which primary human mesenchymal stem cells (MSCs) are differentiated into osteoblasts following an established protocol that results in a high rate of differentiation. To induce osteoblast differentiation, MSC are seeded at a low density (3.1×10^3 cells per cm2) and cultured in media containing β-glycerolphosphate and ascorbic acid for fourteen days. For testing of candidate compounds, MSCs will be differentiated in the presence of the compounds for the duration of the 14-day culture period. Osteoblast differentiation is then assayed via a simple colorometric readout that reflects the levels of cellular alkaline phosphates (ALP), an enzyme present in differentiating osteoblasts but absent in MSCs. ALP levels are then normalized to cell number, which is measured by utilizing the Alamar blue assay. Mineralization can be assessed by staining with xylenol orange. The screen and the 96-well format will allow multiple compounds to be tested at various concentrations. A substantial number of compounds may be identified that are active at a nanomolar concentration.

T1 sequence (Q8BZZ3 whole entry): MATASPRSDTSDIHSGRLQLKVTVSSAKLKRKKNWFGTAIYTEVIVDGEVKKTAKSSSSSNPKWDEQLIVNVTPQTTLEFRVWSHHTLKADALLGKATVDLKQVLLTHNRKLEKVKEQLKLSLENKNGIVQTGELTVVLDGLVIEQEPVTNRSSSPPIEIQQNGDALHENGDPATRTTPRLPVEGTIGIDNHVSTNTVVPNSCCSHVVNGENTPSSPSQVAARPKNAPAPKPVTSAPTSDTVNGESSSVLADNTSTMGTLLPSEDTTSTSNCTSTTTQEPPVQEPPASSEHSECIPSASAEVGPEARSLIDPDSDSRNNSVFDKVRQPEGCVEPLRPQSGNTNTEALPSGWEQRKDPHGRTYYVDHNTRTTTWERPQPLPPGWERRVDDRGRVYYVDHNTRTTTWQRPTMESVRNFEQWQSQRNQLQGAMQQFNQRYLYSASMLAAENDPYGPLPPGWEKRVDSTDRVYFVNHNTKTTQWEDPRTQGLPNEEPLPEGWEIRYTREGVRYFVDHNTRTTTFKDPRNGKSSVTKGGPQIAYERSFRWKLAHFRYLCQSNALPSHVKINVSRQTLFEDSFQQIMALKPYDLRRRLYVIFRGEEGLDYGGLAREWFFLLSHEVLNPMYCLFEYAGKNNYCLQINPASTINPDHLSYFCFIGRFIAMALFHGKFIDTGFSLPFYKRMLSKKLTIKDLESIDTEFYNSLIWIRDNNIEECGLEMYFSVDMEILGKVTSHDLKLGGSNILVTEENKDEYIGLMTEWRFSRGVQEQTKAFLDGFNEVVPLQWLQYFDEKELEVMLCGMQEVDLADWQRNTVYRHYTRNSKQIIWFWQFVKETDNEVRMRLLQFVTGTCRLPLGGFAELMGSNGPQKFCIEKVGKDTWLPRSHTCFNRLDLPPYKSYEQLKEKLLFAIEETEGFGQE

On to `O=c1[nH]cc(CS(=O)(=O)Cc2c[nH]c(=O)[nH]c2=O)c(=O)[nH]1` [5,5′-(sulfonyldimethylene)diuracil], for which the “Runx2 transactivation in the OSE2 reporter assay” value in experiment [1] (C3H10T1/2 cells, 6xOSE2 luciferase reporter) is “increase Runx2 transactivation”. In addition, the “WWP1 inhibition inferred from the OSE2 reporter assay” value in experiment [1] (concluded from increased Runx2 transactivation) is on record as “inhibit WWP1”. Further, the “formation of mineralized nodules” value in experiment [2] is given as “substantially increased formation of mineralized nodules”.
